The results in this text go back to ChEMBL document CHEMBL1201862, “PubChem BioAssay data set” (2004).

What is called EC50 is the concentration giving half of the maximal effect. As a reminder, the IC50 is the concentration needed to halve the response being measured.

One test has as its target T1, Streptokinase A (Streptococcus pyogenes serotype M1, UniProt P10520).
T1 sequence (P10520 whole entry): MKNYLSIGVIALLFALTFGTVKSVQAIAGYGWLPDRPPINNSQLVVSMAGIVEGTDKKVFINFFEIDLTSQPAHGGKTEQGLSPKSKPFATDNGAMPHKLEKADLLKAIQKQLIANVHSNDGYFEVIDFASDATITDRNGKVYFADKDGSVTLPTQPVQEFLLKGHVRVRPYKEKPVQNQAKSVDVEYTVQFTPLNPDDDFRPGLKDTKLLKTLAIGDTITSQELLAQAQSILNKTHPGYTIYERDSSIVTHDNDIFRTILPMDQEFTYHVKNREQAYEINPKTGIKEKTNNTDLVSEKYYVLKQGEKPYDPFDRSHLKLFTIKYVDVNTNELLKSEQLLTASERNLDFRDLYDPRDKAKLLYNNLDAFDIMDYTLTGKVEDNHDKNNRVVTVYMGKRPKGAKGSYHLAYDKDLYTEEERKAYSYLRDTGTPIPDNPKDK
Nature of the test: S. pyogenes streptokinase expression inhibitors, potency, dose response, plasminogen activation absorbance, OD405 (AID 1914).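 Note: secreted streptokinase activity via plasminogen activation per viability signal from cell pellet.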 Type of test: functional, Streptococcus pyogenes M1 GAS.

Another test deals with T2, Protein RecA (Mycobacterium tuberculosis, UniProt P9WHJ3).
T2 sequence (P9WHJ3 whole entry): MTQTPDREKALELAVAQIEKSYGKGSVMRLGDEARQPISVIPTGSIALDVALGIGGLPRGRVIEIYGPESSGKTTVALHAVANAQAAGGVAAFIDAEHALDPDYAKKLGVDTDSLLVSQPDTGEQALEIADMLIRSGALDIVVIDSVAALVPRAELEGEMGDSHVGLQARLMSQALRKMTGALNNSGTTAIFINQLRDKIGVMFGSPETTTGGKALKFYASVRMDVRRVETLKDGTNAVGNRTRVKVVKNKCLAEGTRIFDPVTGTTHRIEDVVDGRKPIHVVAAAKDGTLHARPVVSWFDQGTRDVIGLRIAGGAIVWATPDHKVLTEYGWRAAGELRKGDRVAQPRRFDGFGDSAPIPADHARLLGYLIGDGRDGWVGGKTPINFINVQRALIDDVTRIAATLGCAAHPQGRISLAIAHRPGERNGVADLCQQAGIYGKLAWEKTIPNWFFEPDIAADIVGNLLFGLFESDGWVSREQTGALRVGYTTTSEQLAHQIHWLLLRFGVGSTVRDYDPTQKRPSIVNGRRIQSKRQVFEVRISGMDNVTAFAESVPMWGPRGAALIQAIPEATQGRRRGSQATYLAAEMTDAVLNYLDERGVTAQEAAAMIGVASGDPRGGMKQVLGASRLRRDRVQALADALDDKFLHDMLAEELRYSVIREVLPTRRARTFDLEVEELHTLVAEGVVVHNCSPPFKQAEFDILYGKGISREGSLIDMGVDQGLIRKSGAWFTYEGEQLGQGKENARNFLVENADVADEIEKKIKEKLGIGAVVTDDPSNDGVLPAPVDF
Nature of the test: Fluorescence Cell-Free Homogeneous Dose Retest to Identify Inhibitors of RecA-Intein Splicing Activity. [Related pubchem assays (depositor defined):AID2097, AID2223, AID489010, AID492950]. The format is functional.

Test [1] concerns the target E3 ubiquitin-protein ligase UHRF1 (Homo sapiens, UniProt Q96T88). Nature of the test: Counterscreen for inhibitors of 5-meCpG-binding domain protein 2 (MBD2): TRFRET-based biochemical high throughput dose response assay to identify inhibitors of binding of ubiquitin-like with PHD and ring finger domains 1 (UHRF1) to methylated oligonucleotide.

Active and inactive are the calls of the source. Cut-off read from the data, not from the text of the source, for most assays here: actives have a measured EC50 and inactives only a lower limit. Bounds are passed on as bounds.

Sequence of E3 ubiquitin-protein ligase UHRF1 (Q96T88 whole entry, the tested form may be a part): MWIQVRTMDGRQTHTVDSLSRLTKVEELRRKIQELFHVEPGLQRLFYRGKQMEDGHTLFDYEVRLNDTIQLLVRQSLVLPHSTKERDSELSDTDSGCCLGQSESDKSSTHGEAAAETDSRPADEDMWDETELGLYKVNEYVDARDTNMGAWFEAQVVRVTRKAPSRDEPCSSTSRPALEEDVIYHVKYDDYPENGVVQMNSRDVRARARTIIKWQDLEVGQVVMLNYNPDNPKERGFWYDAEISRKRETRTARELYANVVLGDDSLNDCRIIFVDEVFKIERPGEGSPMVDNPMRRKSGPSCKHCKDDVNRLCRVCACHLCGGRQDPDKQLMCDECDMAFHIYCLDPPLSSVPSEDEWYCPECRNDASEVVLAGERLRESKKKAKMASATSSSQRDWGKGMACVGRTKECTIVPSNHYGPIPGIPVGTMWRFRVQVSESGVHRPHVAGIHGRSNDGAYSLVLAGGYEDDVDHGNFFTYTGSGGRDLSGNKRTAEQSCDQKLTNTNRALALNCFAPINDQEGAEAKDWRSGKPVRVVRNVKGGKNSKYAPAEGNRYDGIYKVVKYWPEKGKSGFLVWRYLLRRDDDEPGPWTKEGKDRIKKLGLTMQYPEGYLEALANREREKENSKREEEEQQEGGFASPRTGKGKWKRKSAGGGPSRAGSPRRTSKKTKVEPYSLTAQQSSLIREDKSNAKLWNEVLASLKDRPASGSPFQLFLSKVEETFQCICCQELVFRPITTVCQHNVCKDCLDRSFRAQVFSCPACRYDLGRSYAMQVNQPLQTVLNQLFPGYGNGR

Turning to `CCCCn1c(NS(=O)(=O)c2ccccc2)c(S(=O)(=O)c2ccc(C)cc2)c2nc3ccccc3nc21`, the EC50 at Streptokinase A is 18.2 µM (active); on Protein RecA it was 0.0801 µM (inconclusive). Also, the IC50 in test [1] was > 43.8 µM (inactive).
